This test has as its system β-catenin-TCF-mediated reporter transcription activity in Colo 205 cells. Nature of the test: Colo 205 reporter assay (TCF/LEF luciferase). It counts as cell-based. The following applies: Homo sapiens, COLO 205, 5 h, Colo 205 TCF/LEF luciferase reporter, five hours after addition of compound; read-out: TCF reporter Colo205 IC50. The gist of the method:
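Luciferase signal from a TCF/LEF-driven reporter, stably integrated in Colo 205 colon cancer cells, was measured 5 h after compound addition.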
Background: Reporter assays use an easily measured gene product as a stand-in for the process of interest.

Bounds are passed on as bounds.

In general, IC50 refers to the point on the concentration scale where inhibition reaches its midpoint. `Cc1nc(N[C@H]2C[C@H](Oc3ccc(OC(F)(F)F)cc3)C2)nc2c1NC(=O)[C@H](C)N2C` [Compound 326, (7S)-4,7,8-trimethyl-2-((trans-3-(4-(trifluoromethoxy)phenoxy)-cyclobutyl)amino)-7,8-dihydropteridin-6(5H)-one]: the IC50 was less than 0.3 µM.

For the molecule `[2H]C([2H])([2H])N1C(=O)[C@H](C)N(C)c2nc(N[C@H]3C[C@H](Oc4cc(F)c(F)c(F)c4)C3)nc(C)c21` [Compound 327, (7S)-4,7,8-trimethyl-5-(methyl-d3)-2-((trans-3-(3,4,5-trifluorophenoxy)-cyclobutyl)-amino)-7,8-dihydropteridin-6(5H)-one], the IC50 was less than 0.3 µM.

As for `[2H]C([2H])([2H])C([2H])([2H])N1C(=O)[C@H](C)N(C)c2nc(N[C@H]3C[C@H](Oc4cc(F)c(F)c(F)c4)C3)nc(C)c21` [Compound 328, (7S)-5-(ethyl-d5)-4,7,8-trimethyl-2-((trans-3-(3,4,5-trifluorophenoxy)-cyclobutyl)amino)-7,8-dihydropteridin-6(5H)-one], the IC50 is less than 0.3 µM.

Turning to `Cc1nc(N[C@H]2C[C@H](Sc3cc(F)c(F)c(F)c3)C2)nc2c1N(C)C(=O)[C@H](C)N2C` [Compound 330, (7S)-4,5,7,8-tetramethyl-2-((trans-3-((3,4,5-trifluorophenyl)thio)-cyclobutyl)amino)-7,8-dihydropteridin-6(5H)-one], the IC50 lay within 0.3 to 1 µM.

Regarding `Cc1nc(N[C@H]2C[C@@H](Sc3cc(F)c(F)c(F)c3)C2)nc2c1N(C)C(=O)[C@H](C)N2C` [Compound 331, (7S)-4,5,7,8-tetramethyl-2-((cis-3-((3,4,5-trifluorophenyl)thio)cyclobutyl)amino)-7,8-dihydropteridin-6(5H)-one], the IC50 is less than 0.3 µM.

Turning to `Cc1nc(N[C@H]2C[C@H](Oc3cnc(C(F)(F)F)nc3)C2)nc2c1NC(=O)[C@H](C)N2C` [Compound 333, (7S)-4,7,8-trimethyl-2-((trans-3-((2-(trifluoromethyl)pyrimidin-5-yl)oxy)cyclobutyl)amino)-7,8-dihydropteridin-6(5H)-one], the IC50 is less than 0.3 µM.

On to `Cc1nc(N[C@H]2C[C@H](Oc3cnc(C(F)(F)F)nc3)C2)nc2c1N(C)C(=O)[C@H](C)N2C` [Compound 334, (7S)-4,5,7,8-tetramethyl-2-((trans-3-((2-(trifluoromethyl)pyrimidin-5-yl)oxy)cyclobutyl)amino)-7,8-dihydropteridin-6(5H)-one], for which the IC50 lay in the range of 0.3 to 1 µM.

Turning to `Cc1nc(N[C@H]2C[C@@H](Sc3ccc(OC(F)(F)F)cc3)C2)nc2c1NC(=O)[C@H](C)N2C` [Compound 336, (7S)-4,7,8-trimethyl-2-((cis-3-((4-(trifluoromethoxy)phenyl)thio)cyclobutyl)amino)-7,8-dihydropteridin-6(5H)-one], the IC50 is 0.3 to 1 µM.

On to `Cc1nc(N[C@H]2C[C@H](Oc3ccnc(C(F)(F)F)c3)C2)nc2c1N(C)C(=O)[C@H](C)N2C` [Compound 337, (7S)-4,5,7,8-tetramethyl-2-((trans-3-((2-(trifluoromethyl)pyridin-4-yl)oxy)cyclobutyl)amino)-7,8-dihydropteridin-6(5H)-one], for which the IC50 is 0.3 to 1 µM.

On to `Cc1ccc(O[C@H]2C[C@H](Nc3nc(C)c4c(n3)N(C)[C@@H](C)C(=O)N4C)C2)cc1` [Compound 338, (7S)-4,5,7,8-tetramethyl-2-((trans-3-(p-tolyloxy)cyclobutyl)amino)-7,8-dihydropteridin-6(5H)-one], for which the IC50 was in the range of 1 to 5 µM.

Turning to `Cc1ccc(O[C@H]2C[C@H](Nc3nc(C)c4c(n3)N(C)[C@@H](C)C(=O)N4)C2)cc1` [Compound 339, (7S)-4,7,8-trimethyl-2-((trans-3-(p-tolyloxy)cyclobutyl)amino)-7,8-dihydropteridin-6(5H)-one], the IC50 is 0.3 to 1 µM.

`Cc1nc(N[C@H]2C[C@H](Oc3ccc(C(F)(F)F)cc3)C2)nc2c1NC(=O)[C@H](C)N2C` [Compound 340, (7S)-4,7,8-trimethyl-2-((trans-3-(4-(trifluoromethyl)phenoxy)cyclobutyl)amino)-7,8-dihydropteridin-6(5H)-one]: the IC50 was less than 0.3 µM.

With `Cc1nc(N[C@H]2C[C@H](Oc3ccc(C(F)(F)F)cc3)C2)nc2c1N(C)C(=O)[C@H](C)N2C` [Compound 341, (7S)-4,5,7,8-tetramethyl-2-((trans-3-(4-(trifluoromethyl)phenoxy)-cyclobutyl)-amino)-7,8-dihydropteridin-6(5H)-one], the IC50 was less than 0.3 µM.

Turning to `COc1ccc(O[C@H]2C[C@H](Nc3nc(C)c4c(n3)N(C)[C@@H](C)C(=O)N4)C2)cc1` [Compound 342, (7S)-2-((trans-3-(4-methoxyphenoxy)cyclobutyl)amino)-4,7,8-trimethyl-7,8-dihydropteridin-6(5H)-one], the IC50 was 1 to 5 µM.

`COc1ccc(O[C@H]2C[C@H](Nc3nc(C)c4c(n3)N(C)[C@@H](C)C(=O)N4C)C2)cc1` [Compound 343, (7S)-2-((trans-3-(4-methoxyphenoxy)cyclobutyl)amino)-4,5,7,8-tetramethyl-7,8-dihydropteridin-6(5H)-one]: the 50% inhibitory concentration (IC50) was not below 5 µM.

Regarding `COc1cc(F)ccc1O[C@H]1C[C@H](Nc2nc(C)c3c(n2)N(C)[C@@H](C)C(=O)N3)C1` [Compound 344, (7S)-2-((trans-3-(4-fluoro-2-methoxyphenoxy)cyclobutyl)amino)-4,7,8-trimethyl-7,8-dihydropteridin-6(5H)-one], the IC50 was in the range of 0.3 to 1 µM.

For the molecule `COc1cc(F)ccc1O[C@H]1C[C@H](Nc2nc(C)c3c(n2)N(C)[C@@H](C)C(=O)N3C)C1` [Compound 345, (7S)-2-((trans-3-(4-fluoro-2-methoxyphenoxy)cyclobutyl)amino)-4,5,7,8-tetramethyl-7,8-dihydropteridin-6(5H)-one], the IC50 lay within 0.3 to 1 µM.

Take `Cc1nc(N[C@H]2C[C@H](Oc3ccc(OCC(F)(F)F)nc3)C2)nc2c1N(C)C(=O)[C@H](C)N2C` [Compound 346, (7S)-4,5,7,8-tetramethyl-2-((trans-3-((6-(2,2,2-trifluoroethoxy)pyridin-3-yl)oxy)cyclobutyl)amino)-7,8-dihydropteridin-6(5H)-one]: the IC50 was 0.3 to 1 µM.

Turning to `Cc1nc(N[C@H]2C[C@H](Oc3ccc(OCC(F)(F)F)nc3)C2)nc2c1NC(=O)[C@H](C)N2C` [Compound 347, (7S)-4,7,8-trimethyl-2-((trans-3-((6-(2,2,2-trifluoroethoxy)pyridin-3-yl)oxy)cyclobutyl)amino)-7,8-dihydropteridin-6(5H)-one], the IC50 was less than 0.3 µM.

Regarding `Cc1nc(N[C@H]2C[C@@H](Sc3ccc(OC(F)(F)F)cc3)C2)nc2c1N(C)C(=O)[C@H](C)N2C` [Compound 348, (7S)-4,5,7,8-tetramethyl-2-((cis-3-((4-(trifluoromethoxy)phenyl)thio)cyclobutyl)amino)-7,8-dihydropteridin-6(5H)-one], the IC50 fell in the range of 1 to 5 µM.

Consider `Cc1nc(N[C@H]2C[C@H](Oc3cc(F)c(O)c(F)c3)C2)nc2c1NC(=O)[C@H](C)N2C` [Compound 349, (7S)-2-((trans-3-(3,5-difluoro-4-hydroxyphenoxy)cyclobutyl)amino)-4,7,8-trimethyl-7,8-dihydropteridin-6(5H)-one], for which the IC50 was not below 5 µM.

Consider `COc1ccc(O[C@H]2C[C@H](Nc3nc(C)c4c(n3)N(C)[C@@H](C)C(=O)N4)C2)cc1F` [Compound 350, (7S)-2-((trans-3-(3-fluoro-4-methoxyphenoxy)cyclobutyl)amino)-4,7,8-trimethyl-7,8-dihydropteridin-6(5H)-one], for which the IC50 was 0.3 to 1 µM.

As to `COc1ccc(O[C@H]2C[C@H](Nc3nc(C)c4c(n3)N(C)[C@@H](C)C(=O)N4C)C2)cc1F` [Compound 351, (7S)-2-((trans-3-(3-fluoro-4-methoxyphenoxy)cyclobutyl)amino)-4,5,7,8-tetramethyl-7,8-dihydropteridin-6(5H)-one], the IC50 was in the range of 1 to 5 µM.

Take `COc1ccc(O[C@H]2C[C@H](Nc3nc(C)c4c(n3)N(C)[C@@H](C)C(=O)N4)C2)cc1OC` [Compound 352, (7S)-2-((trans-3-(3,4-dimethoxyphenoxy)cyclobutyl)amino)-4,7,8-trimethyl-7,8-dihydropteridin-6(5H)-one]: the IC50 was in the range of 1 to 5 µM.

As to `COc1ccc(O[C@H]2C[C@H](Nc3nc(C)c4c(n3)N(C)[C@@H](C)C(=O)N4C)C2)cc1OC` [Compound 353, (7S)-2-((trans-3-(3,4-dimethoxyphenoxy)cyclobutyl)amino)-4,5,7,8-tetramethyl-7,8-dihydropteridin-6(5H)-one], the IC50 is not below 5 µM.

Regarding `COc1ccc(O[C@H]2C[C@H](Nc3nc(C)c4c(n3)N(C)[C@@H](C)C(=O)N4)C2)c(F)c1` [Compound 354, (7S)-2-((trans-3-(2-fluoro-4-methoxyphenoxy)cyclobutyl)amino)-4,7,8-trimethyl-7,8-dihydropteridin-6(5H)-one], the IC50 is 1 to 5 µM.

Regarding `COc1ccc(O[C@H]2C[C@H](Nc3nc(C)c4c(n3)N(C)[C@@H](C)C(=O)N4C)C2)c(F)c1` [Compound 355, (7S)-2-((trans-3-(2-fluoro-4-methoxyphenoxy)cyclobutyl)amino)-4,5,7,8-tetramethyl-7,8-dihydropteridin-6(5H)-one], the IC50 lay in the range of 1 to 5 µM.

Take `Cc1nc(N[C@H]2C[C@H](Oc3ccc(F)nc3)C2)nc2c1N(C)C(=O)[C@H](C)N2C` [Compound 358, (7S)-2-((trans 3-((6-fluoropyridin-3-yl)oxy)cyclobutyl)amino)-4,5,7,8-tetramethyl-7,8-dihydropteridin-6(5H)-one]: the IC50 was 1 to 5 µM.

With `Cc1nc(N[C@H]2C[C@H](Oc3ccc(OC(F)(F)F)c(F)c3)C2)nc2c1NC(=O)[C@H](C)N2C` [Compound 359, (7S)-2-((trans-3-(3-fluoro-4-(trifluoromethoxy)phenoxy)cyclobutyl)amino)-4,7,8-trimethyl-7,8-dihydropteridin-6(5H)-one], the IC50 is less than 0.3 µM.

Consider `Cc1nc(N[C@H]2C[C@H](Oc3ccc(OC(F)(F)F)c(F)c3)C2)nc2c1N(C)C(=O)[C@H](C)N2C` [Compound 360, (7S)-2-((trans 3-(3-fluoro-4-(trifluoromethoxy)phenoxy)cyclobutyl)amino)-4,5,7,8-tetramethyl-7,8-dihydropteridin-6(5H)-one], for which the IC50 was less than 0.3 µM.

The values above are taken from patent US20230312587A1, “PTERIDINONE COMPOUNDS AND USES THEREOF” (Vertex Pharmaceutical Incorporated, priority 2018, published 2023).
